These results are taken from US20240415819A1, “MACROCYCLIC COMPOUNDS AS PROTEASOME SUBUNIT BETA TYPE-5 INHIBITORS” (Lead Discovery Center GmbH, priority 2021, published 2024).

Read-outs that look alike come from different tables or passages of the source.

The target of test [1] is T1, β5 subunit of the human constitutive proteasome (CPS) (Homo sapiens, UniProt P28074).
T1 construct: purchased Boston Biochem E-360
The experiment in a line: β5 inhibition assay, human constitutive proteasome (Suc-LLVY-AMC). It counts as biochemical. The note with it: IC50 class, Suc-LLVY-AMC substrate. The protocol: The enzymatic activity of the β5 subunit of the human constitutive proteasome (CPS) is analyzed. In another assay, which differs from the assay of the human constitutive proteasome only in using the human immunoproteasome (IPS) the enzymatic activity of the β5 subunit of the human immunoproteasome (IPS) is analyzed. […] Inhibition is indicated as IC50 [nM] (“-”=not measured).

Test [2] concerns the target T2, β5 subunit of the human immunoproteasome (IPS) (Homo sapiens, UniProt P28062).
T2 construct: purchased Boston Biochem E-370
The experiment in a line: β5 inhibition assay, human immunoproteasome (Suc-LLVY-AMC). It counts as biochemical. The note with it: IC50 class, Suc-LLVY-AMC substrate. The essentials:
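β5 activity is read as liberated AMC fluorescence (355/460 nm) after 4 h dark reaction at RT with 22.6 μM Suc-LLVY-AMC, stopped by 1 μM bortezomib. Beforehand, 1 nM human IPS and compound sat 10 min at RT in HEPES pH 7.5 buffer containing NaCl, 0.02% SDS and DTT.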

For test [3], the system named is HT-29 cells. Put plainly: CellTiter-Glo luminescent cell viability assay with HT-29 cells (72h incubation). The conditions noted are these: read-out: CTG HT29. It counts as cell-based, human. In a few lines: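 Viability read as CellTiter-Glo luminescence after 72 h compound exposure, with 10 μM staurosporine and DMSO as control wells. Seeding 400 cells per well, compound added 24 h post-plating; IC50 from curve fitting.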
(In ATP-based viability assays light output follows the ATP content of the culture.)

Test [4] concerns A549 (human lung carcinoma cell line). Put plainly: Glo assay of A549 cells (Table 3; ProteasomeGlo plating scheme). It counts as cell-based. The conditions noted are these: A549 cells, read-out: PGLo A549. In a few lines:
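Luminescent read-out of cellular chymotrypsin-like proteasome activity: cells exposed to compound 105 min at 37° C., 5% CO2, then given Suc-LLVY-Glo reagent, shaken 2-5 min and kept dark 10-15 min before reading. Values are IC50 [nM].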

The mark [5] stands for this setting: Homo sapiens, HT-29, HT29 cells.

Turning to `Cc1ccc2cc1CNC(=O)C(CCc1ccncc1)NC(=O)[C@@H](NC(=O)Cc1ccc(N)cc1F)CC(=O)N1CCCC(CCO2)C1` (stereo partly drawn) [Compound 344, 2-(4-amino-2-fluorophenyl)-N-((12S)-5^4-methyl-8,11,14-trioxo-9-(2-(pyridin-4-yl)ethyl)-4-oxa-7,10-diaza-1(3,1)-piperidina-5(1,3)-benzenacyclotetradecaphane-12-yl)acetamide], the IC50 in test [1], in test [2], in test [3] (setting [5]) and in test [4] (Homo sapiens) was below 100 nM in each case.
`COC(=O)N(CC1NC(=O)[C@@H](NC(=O)OCc2ccccc2)CC(=O)N2CCCC(CCOc3ccc(C)c(c3)CNC1=O)C2)c1ccccc1` (stereo partly drawn) [Compound 513, methyl (((12R)-12-(((benzyloxy)carbonyl)amino)-5^4-methyl-8,11,14-trioxo-4-oxa-7,10-diaza-1(3,1)-piperidina-5(1,3)-benzenacyclotetradecaphane-9-yl)methyl)(phenyl)carbamate]: the IC50 in test [1], in test [2], in test [3] (setting [5]) and in test [4] (Homo sapiens) was below 100 nM each time.
On to `Cc1ccc2cc1CNC(=O)C(CCc1ccncc1)NC(=O)[C@@H](NC(=O)OCc1ccccc1)CC(=O)N1CCCC(CCO2)C1` (stereo partly drawn) [Compound 336, benzyl ((12S)-5^4-methyl-8,11,14-trioxo-9-(2-(pyridin-4-yl)ethyl)-4-oxa-7,10-diaza-1(3,1)-piperidina-5(1,3)-benzenacyclotetradecaphane-12-yl)carbamate], for which the IC50 in test [1], in test [2], in test [3] (setting [5]) and in test [4] (Homo sapiens) was below 100 nM in each case.
For `Cc1ccc2cc1CNC(=O)[C@H](CCc1ccccc1)NC(=O)[C@@H](NC(=O)Cc1nnc(N)s1)CC(=O)N1CCCC(CCO2)C1` (stereo partly drawn) [Compound 310, 2-(5-amino-1,3,4-thiadiazol-2-yl)-N-((9S,12S)-54-methyl-8,11,14-trioxo-9-phenethyl-4-oxa-7,10-diaza-1(3,1)-piperidina-5(1,3)-benzenacyclotetradecaphane-12-yl)acetamide], the IC50 in test [1], in test [2], in test [3] (setting [5]) and in test [4] (Homo sapiens) was below 100 nM each time.
As to `Cc1ccc2cc1CNC(=O)[C@H](CCc1ccccc1)NC(=O)[C@@H](NC(=O)OCc1ccccc1)CC(=O)N1CCCC(CCO2)C1` (stereo partly drawn) [Compound 7, benzyl ((9S,12S)-5^4-methyl-8,11,14-trioxo-9-phenethyl-4-oxa-7,10-diaza-1(3,1)-piperidina-5(1,3)-benzenacyclotetradecaphane-12-yl)carbamate], the IC50 in test [1], in test [2], in test [3] (setting [5]) and in test [4] (Homo sapiens) was below 100 nM in each case.
On to `Cc1ccc2cc1CNC(=O)[C@H](CCc1ccccc1)NC(=O)[C@@H](NC(=O)OCc1ccccc1)CCCCC(=O)N1CC(CCO2)C1` [Compound 353, benzyl ((9S,12S)-5^4-methyl-8,11,17-trioxo-9-phenethyl-4-oxa-7,10-diaza-1(3,1)-azetidina-5(1,3)-benzenacycloheptadecaphane-12-yl)carbamate], for which the IC50 in test [1], in test [2], in test [3] (setting [5]) and in test [4] (Homo sapiens) was below 100 nM in each case.
`CC(=O)N[C@H]1CC(=O)N2CCCC(CCOc3ccc(C)c(c3)CNC(=O)[C@H](CCc3ccccc3)NC1=O)C2` (stereo partly drawn) [Compound 33, N-((9S,12S)-5^4-methyl-8,11,14-trioxo-9-phenethyl-4-oxa-7,10-diaza-1(3,1)-piperidina-5(1,3)-benzenacyclotetradecaphane-12-yl)acetamide]: the IC50 in test [1], in test [2], in test [3] (setting [5]) and in test [4] (Homo sapiens) was below 100 nM in each case.
On to `Cc1ccc2cc1CNC(=O)C(CCc1ccccc1)NC(=O)C(NC(=O)CCc1ccccc1)CC(=O)N1CCCC(CCO2)C1` [Compound 30, N-((9S,12S)-5^4-methyl-8,11,14-trioxo-9-phenethyl-4-oxa-7,10-diaza-1(3,1)-piperidina-5(1,3)-benzenacyclotetradecaphane-12-yl)-3-phenylpropanamide], for which the IC50 in test [1], in test [2], in test [3] (HT29 cells) and in test [4] was below 100 nM each time.
`Cc1ccc2cc1CNC(=O)[C@H](CCc1ccccc1)NC(=O)[C@@H](NC(=O)Cc1nnc(N)[nH]1)CC(=O)N1CCCC(CCO2)C1` (stereo partly drawn) [Compound 340, 2-(5-amino-1H-1,2,4-triazol-3-yl)-N-((9S,12S)-5^4-methyl-8,11,14-trioxo-9-phenethyl-4-oxa-7,10-diaza-1(3,1)-piperidina-5(1,3)-benzenacyclotetradecaphane-12-yl)acetamide]: the IC50 in test [1] was below 100 nM; in test [2], below 100 nM; in test [3] (setting [5]), 100 to 500 nM; in test [4] (Homo sapiens) it was below 100 nM.
With `CC(=O)N[C@H]1CC(=O)N2CCCC(CCOc3ccc(C)c(c3)CNC(=O)C(c3cnn(CCC(=O)O)c3)NC1=O)C2` (stereo partly drawn) [Compound 567, 3-(4-((12S)-12-acetamido-5^4-methyl-8,11,14-trioxo-4-oxa-7,10-diaza-1(3,1)-piperidina-5(1,3)-benzenacyclotetradecaphane-9-yl)-1H-pyrazol-1-yl)propanoic acid], the IC50 in test [1] is below 100 nM; in test [2], below 100 nM; in test [3] (setting [5]), 100 to 500 nM; in test [4] (Homo sapiens) it was below 100 nM.
For the compound `Cc1ccc2cc1CNC(=O)[C@H](CCc1ccccc1)NC(=O)[C@@H](NC(=O)CC(C)(C)C)CC(=O)N1CCCC(CCO2)C1` (stereo partly drawn) [Compound 28, 3,3-dimethyl-N-((9S,12S)-5^4-methyl-8,11,14-trioxo-9-phenethyl-4-oxa-7,10-diaza-1(3,1)-piperidina-5(1,3)-benzenacyclotetradecaphane-12-yl)butanamide], the IC50 in test [1], in test [2], in test [3] (setting [5]) and in test [4] (Homo sapiens) was below 100 nM in each case.
Turning to `Cc1ccc2cc1CNC(=O)C(CCc1ccc(C3(C)COC3)cc1)NC(=O)[C@@H](NC(=O)OCc1ccccc1)CC(=O)N1CCCC(CCO2)C1` (stereo partly drawn) [Compound 510, benzyl ((12S)-5^4-methyl-9-(4-(3-methyloxetan-3-yl)phenethyl)-8,11,14-trioxo-4-oxa-7,10-diaza-1(3,1)-piperidina-5(1,3)-benzenacyclotetradecaphane-12-yl)carbamate], the IC50 in test [1], in test [2], in test [3] (setting [5]) and in test [4] (Homo sapiens) was below 100 nM in each case.
As for `Cc1ccc2cc1CNC(=O)C(CCc1cnccn1)NC(=O)[C@@H](NC(=O)C1(c3ccc(N)cc3)CC1)CC(=O)N1CCCC(CCO2)C1` (stereo partly drawn) [Compound 371, 1-(4-aminophenyl)-N-((9S,12S)-5^4-methyl-8,11,14-trioxo-9-(2-(pyrazin-2-yl)ethyl)-4-oxa-7,10-diaza-1(3,1)-piperidina-5(1,3)-benzenacyclotetradecaphane-12-yl)cyclopropane-1-carboxamide], the IC50 in test [1], in test [2], in test [3] (setting [5]) and in test [4] (Homo sapiens) was below 100 nM throughout.
`Cc1ccc2cc1CNC(=O)[C@H](CCc1ccccc1)NC(=O)[C@@H](NC(=O)OCc1ccccc1)CC(=O)N1CC(CCO2)CC2CCCCC21` (stereo partly drawn) [Compound 314, benzyl ((9S,12S)-5^4-methyl-8,11,14-trioxo-9-phenethyl-11,12,13,14,14a,15,16,17,18,18a-decahydro-4-oxa-7,10-diaza-1(3,1)-quinolina-5(1,3)-benzenacyclotetradecaphane-12-yl)carbamate]: the IC50 in test [1], in test [2], in test [3] (setting [5]) and in test [4] (Homo sapiens) was below 100 nM in each case.
With `Cc1ccc2cc1CNC(=O)[C@@H](CCc1ccccc1)NC(=O)[C@H](NC(=O)C(C)(C)CS)CC(=O)N1CCCC(CCO2)C1` (stereo partly drawn) [Compound 348, 3-mercapto-2,2-dimethyl-N-((9S,12S)-5^4-methyl-8,11,14-trioxo-9-phenethyl-4-oxa-7,10-diaza-1(3,1)-piperidina-5(1,3)-benzenacyclotetradecaphane-12-yl)propanamide], the IC50 in test [1], in test [2], in test [3] (setting [5]) and in test [4] (Homo sapiens) was below 100 nM throughout.
`CC(=O)N[C@H]1CC(=O)N2CCCC(CCOc3ccc(C)c(c3)CNC(=O)C(c3coc(C)n3)NC1=O)C2` (stereo partly drawn) [Compound 553, N-((12S)-5^4-methyl-9-(2-methyloxazol-4-yl)-8,11,14-trioxo-4-oxa-7,10-diaza-1(3,1)-piperidina-5(1,3)-benzenacyclotetradecaphane-12-yl)acetamide]: the IC50 in test [1] is below 100 nM; in test [2], below 100 nM; in test [3] (setting [5]) it was below 100 nM; in test [4] (Homo sapiens), 100 to 500 nM.
